Data as given in US20080103198A1, “METHODS FOR TREATMENT OF COCHLEAR AND VESTIBULAR DISORDERS” (priority 2006, published 2008).
Values joined by “and” are separate entries in the source; they are usually repeats but may differ in a detail not shown here. Equal entries are not always repeated.

Tests used:
Format in all cases: in vivo, rat
Li-pilo induced SE [1] = test: Lithium-pilocarpine model (Example 1): Timm staining, mossy fiber sprouting
Protocol: At 2 months after the onset of spontaneous recurrent seizures, mossy fiber sprouting was examined on rats in the chronic period exposed to the test compound or DZP and in 3 saline-saline rats. Animals were deeply anaesthetized and perfused transcardially with saline followed by 100 ml of 1.15% (w/v) Na2S in 0.1 M phosphate buffer, and 100 ml of 4% (v/v) formaldehyde in 0.1 M phosphate buffer. Brains were removed from skull, post-fixed in 4% formaldehyde during 3-5 h and 40 μm sections were cut on a sliding vibratome and mounted on gelatin-coated slides.
The following day, sections were developed in the dark in a 26° C. solution of 50% (w/v) arabic gum (160 ml), sodium citrate buffer (30 ml), 5.7% (w/v) hydroquinone (80 ml) and 10% (w/v) silver nitrate (2.5 ml) during 40-45 min. The sections were then rinsed with tap water at 40° C. during at least 45 min, rinsed rapidly with distilled water and allowed to dry. They were dehydrated in ethanol and coverslipped.
Mossy fiber sprouting was evaluated according to criteria previously described in dorsal hippocampus (Cavazos et al., 1991, J Neurosci 11:2795-2803), which are follows: 0—no granules between the tips and crest of the DG; 1—sparse granules in the supragranular region in a patchy distribution between the tips and crest of DG; 2—more numerous granules in a continuous distribution between the tips and crest of DG; 3—prominent granules in a continuous pattern between tips and crest, with occasional patches of confluent granules between tips and crest; 4—prominent granules that form a confluent dense laminar band between tips and crest and 5—confluent dense laminar band of granules that extends into the inner molecular layer.

Li-pilo induced SE [2] = test: Lithium-pilocarpine model of temporal lobe epilepsy (Example 1): mortality and spontaneous recurrent seizures
Source text: The model induced in rats by pilocarpine associated with lithium (Li-Pilo) reproduces most of the clinical and neurophysiological features of human temporal lobe epilepsy (Turski et al., 1989, Synapse 3:154-171; Cavalheiro, 1995, Ital J Neurol Sci 16:33-37). In adult rats, the systemic administration of pilocarpine leads to status epilepticus (SE). The lethality rate reaches 30-50% during the first days. In the surviving animals, neuronal damage predominates within the hippocampal formation, the piriform and entorhinal cortices, thalamus, amygdaloid complex, neocortex and substantia nigra.
Male Wistar rats weighing 225-250 g, provided by Janvier Breeding Center (Le Genest-St-lste, France) were housed under controlled standard conditions (light/dark cycle, 7.00 a.m.-7.00 p.m. lights on), with food and water available ad libitum. All animal experimentation was performed in accordance with the rules of the European Communities Council Directive of Nov. 24, 1986 (86/609/EEC), and the French Department of Agriculture (License No 67-97). For electrode implantation, rats were anesthetized by an i.p. injection of 2.5 mg/kg diazepam (DZP, Valium, Roche, France) and […] ketamine chlorhydrate (Imalgene 1000, Rhone Merrieux, France). Four single-contact recording electrodes were placed on the skull, over the parietal cortex, two on each side.
All rats received lithium chloride (3 meq/kg, i.p., Sigma, St Louis, Mo., U.S.A.); about 20 h later, animals were placed into plexiglas boxes, in order to record baseline cortical EEG. Methylscopolamine bromide (1 mg/kg, s.c., Sigma) was administered to limit the peripheral effects of the convulsant. SE was induced by injecting pilocarpine hydrochloride (25 mg/kg, s.c., Sigma) 30 min after methyl-scopolamine. The bilateral EEG cortical activity was recorded during the whole duration of SE and behavioral changes were noted.
The effects of increasing doses of the test compound were studied on 3 groups of rats. The animals of the first group received 10 mg/kg of the test compound, i.p., 1 h after the onset of SE (pilo-test10) while the animals of groups 2 and 3 received 30 and 60 mg/kg of the test compound (pilo-test30 and pilo-test60), respectively.
Another group was injected with 2 mg/kg diazepam (DZP, i.m.) at 1 h after the onset of SE which are our standard treatment to improve animals survival after SE (pilo-DZP). The control group received saline instead of pilocarpine and the test compound (saline-saline). The pilo-test compound rats surviving SE were then injected about 10 h after the first test compound injection with a second i.p. injection of the same dose of the test compound and were maintained under a twice daily treatment with the test compound for 6 additional days. Pilo-DZP received a second injection of 1 mg/kg DZP on the day of SE at about 10 h after the first one. Thereafter, Pilo-DZP and saline-saline rats received twice daily an equivalent volume of saline.
The effects of the test compound on the EEG and on the latency to occurrence of SRS were investigated by daily video recording of the animals for 10 h per day and the recording of the electrographic activity twice a week for 8 h.
(§1) For the comparison of the characteristics of SE in pilo-saline and pilo-test compound animals, a non-paired Student's t-test was used. The comparison between the number of rats seizing in both groups was performed by means of a Chi square test. For neuronal damage, statistical analysis between groups was performed using ANOVA followed by a Fisher's test for multiple comparisons using the Statview software (Fisher R A, 1946a, Statistical Methods for Research Workers (10th edition) Oliver & Boyd, Edinburgh; Fisher R A, 1946b, The Design of Experiments (4th edition) Oliver & Boyd, Edinburgh) Behavioral and EEG characteristics of lithium-pitocarpine status epilepticus

Li-pilo induced SE [3] = test: Lithium-pilocarpine model (Example 1): quantification of cell densities
Protocol: Quantification of cell densities was performed at […] after SE on 8 pilo-DZP, 8 pilo-test10, 7 pilo-test30, 7 pilo-test60, and 6 saline-saline rats. At 14 days after SE, animals were deeply anesthetized with 1.8 g/kg pentobarbital (Dolethal®, Vetoquinol, Lure, France. Brains were then removed and frozen. Serial 20 μm slices were cut in a cryostat, air-dried during several days before thionine staining.
Quantification of cell densities was performed with a 10×10 boxes 1 cm^2 microscopic grid on coronal sections according to the stereotaxic coordinates of the rat brain atlas (Paxinos and Watson, 1986, The Rat brain in Stereotaxic Coordinates, 2nd ed. Academic Press, San Diego). Cell counts were performed twice in a blind manner and were the average of at least 3 values from 2 adjacent sections in each individual animal. Counts involved only cells larger than 10 μm, smaller ones being considered as glial cells.
as §1

[4] = DZP, compared to saline-saline rats

SMILES: NC(=O)OC[C@@H](O)c1ccccc1Cl [test compound]
- Timm score, upper blade of dentate gyrus (mean) (Li-pilo induced SE [1]; 10 mg/kg, n=7): 1.5±0.6
- Timm score, upper blade of dentate gyrus (mean) (Li-pilo induced SE [1]; 30 mg/kg, n=10): 2.6±1.0
- Timm score (Li-pilo induced SE [1]; 60 mg/kg, subgroup with early SRS occurrence, n=6): 1.8±0.6
- Timm score (Li-pilo induced SE [1]; 60 mg/kg, subgroup with late occurrence or absence of SRS, n=5): 1.2±0.6
- Timm score, upper blade of dentate gyrus (mean) (Li-pilo induced SE [1]; 60 mg/kg, whole group, n=11): 1.5±0.7
- latency to SRS (Li-pilo induced SE [2]; 10 mg/kg i.p., 7-day treatment, n=7): 15.4 ± 5.1 days
- frequency of stage III SRS (Li-pilo induced SE [2]; 10 mg/kg, weeks 3 and 4): significantly increased over pilo-DZP values
- latency to SRS (Li-pilo induced SE [2]; 30 mg/kg i.p., 7-day treatment, n=10): 18.9 ± 9.0 days
- frequency of stage IV-V SRS (Li-pilo induced SE [2]; 60 mg/kg group with early SRS onset, weeks 2-4): 0.6-0.9 seizure per week
- delay without becoming epileptic post-SE (Li-pilo induced SE [2]; 60 mg/kg, one rat): > 9 months
- mean delay to epilepsy relative to the other groups of animals (Li-pilo induced SE [2]; 60 mg/kg, subgroup of animals): about 9 fold
- latency to SRS (Li-pilo induced SE [2]; 60 mg/kg, subgroup with latency similar to other groups, n=7): 17.6 ± 8.7 days
- latency to SRS (mean) (Li-pilo induced SE [2]; 60 mg/kg, subgroup with much longer delay, n=4): 149.8 ± 36.0 days
- rats with delayed occurrence of spontaneous seizures (Li-pilo induced SE [2]; 60 mg/kg, 4 out of 11): 36%
- frequency of stage IV-V SRS (Li-pilo induced SE [2]; 10, 30 and 60 mg/kg (early SRS onset) groups, first week): 2.3-6.1 SRS per week
- mortality during the first 48 h after SE (Li-pilo induced SE [2]; test compound 10 mg/kg i.p. 1 h after SE onset): 26%
- mortality during the first 48 h after SE (Li-pilo induced SE [2]; test compound 30 mg/kg i.p. 1 h after SE onset): 20%
- mortality during the first 48 h after SE (Li-pilo induced SE [2]; test compound 60 mg/kg i.p. 1 h after SE onset): 4%
- more damage compared with pilo-DZP rats, dorsal entorhinal cortex layers III-IV (Li-pilo induced SE [3]; 10 mg/kg): 28%
- more damage compared with pilo-DZP rats, ventral entorhinal cortex layers III-IV (Li-pilo induced SE [3]; 10 mg/kg): 35%
- neuroprotection compared to pilo-DZP rats, ventral entorhinal cortex layers III-IV (Li-pilo induced SE [3]; 60 mg/kg): 31%
- neuroprotection in CA3b (Li-pilo induced SE [3]; 60 mg/kg): significantly neuroprotective
- reduction of neuronal damage recorded in pilo-DZP rats, piriform cortex layer II (Li-pilo induced SE [3]; 60 mg/kg): 41%
- reduction of neuronal damage recorded in pilo-DZP rats, piriform cortex layers III-IV (Li-pilo induced SE [3]; 60 mg/kg): 44%
- reduction of neuronal damage, lateral thalamic nucleus (Li-pilo induced SE [3]; 60 mg/kg): 65%
- reduction of neuronal damage, mediodorsal thalamic nucleus (Li-pilo induced SE [3]; 60 mg/kg): 42%
- neuroprotection in CA3a area (Li-pilo induced SE [3]; 10, 30, 60 mg/kg): did not afford any protection
- cell loss, hilus of dentate gyrus (Li-pilo induced SE [3]; pilo-test compound animals (10-60 mg/kg)): 69-72%
- cell loss, CA1 pyramidal layer (Li-pilo induced SE [3]; test compound 30 mg/kg): 35%
- cell loss, CA1 pyramidal layer (Li-pilo induced SE [3]; test compound 60 mg/kg): 16%

SMILES: CN1C(=O)CN=C(c2ccccc2)c2cc(Cl)ccc21 [DZP, diazepam, reference compound]
- Timm score, upper blade of dentate gyrus (mean) (Li-pilo induced SE [1]; DZP, n=9): 2.8±0.8
- mortality during the first 48 h after SE (Li-pilo induced SE [2]; DZP 2 mg/kg i.m. 1 h after SE onset): 23%
- latency to SRS (Li-pilo induced SE [2]; DZP 2 mg/kg i.m., n=9): 18.2 ± 6.9 days
- frequency of stage IV-V SRS (Li-pilo induced SE [2]; DZP, first week): 11.3 SRS per week
- cell loss, CA3a (Li-pilo induced SE [3]; [4]): 54%
- cell loss, CA3b (Li-pilo induced SE [3]; [4]): 31%
- cell loss, dorsal entorhinal cortex layer II (Li-pilo induced SE [3]; [4]): 9%
- cell loss, dorsal entorhinal cortex layers III-IV (Li-pilo induced SE [3]; [4]): 15%
- cell loss, hilus of dentate gyrus (Li-pilo induced SE [3]; [4]): 73%
- cell loss, hippocampus CA1 pyramidal cell layer (Li-pilo induced SE [3]; [4]): 70% and 75%
- cell loss, lateral thalamic nucleus (Li-pilo induced SE [3]; [4]): 91%
- cell loss, mediodorsal thalamic nucleus (Li-pilo induced SE [3]; [4]): 56%
- cell loss, piriform cortex layer II (Li-pilo induced SE [3]; [4]): 53%
- cell loss, piriform cortex layers III-IV (Li-pilo induced SE [3]; [4]): total
- cell loss, ventral entorhinal cortex layers III-IV (Li-pilo induced SE [3]; [4]): 44%
- damage, ventral entorhinal cortex layer II (Li-pilo induced SE [3]; [4]): totally preserved
